Values joined by “and” are separate entries in the source; they are usually repeats but may differ in a detail not shown here. Equal entries are not always repeated.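 Where inhibition never reached the appropriate level, the endpoint shown equals the highest concentration tested. Otherwise, values were interpolated linearly from a five-concentration, 48-hour dose response in 96-well plates. GI50 marks 50% less growth.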 Active and inactive are the calls of the source. Cut-off read from the data, not from the text of the source: active = GI50 up to about 1.1 µM and inactive = higher.
Key:
Assay in all cases: NCI anticancer screen, dose series, 48 h
NCI/ADR-RES = tested on: NCI/ADR-RES
UACC-62 = tested on: UACC-62
PC-3 = tested on: PC-3
BT-549 = tested on: BT-549
UO-31 = tested on: UO-31
U-251 = tested on: U-251
SK-OV-3 = tested on: SK-OV-3
A498 = tested on: A498
DU-145 = tested on: DU-145
HCT-116 = tested on: HCT-116
SR = tested on: SR
COLO 205 = tested on: COLO 205
MCF7 = tested on: MCF7
HT-29 = tested on: HT-29
SNB-19 = tested on: SNB-19
OVCAR-3 = tested on: OVCAR-3
SNB-75 = tested on: SNB-75
HCT-15 = tested on: HCT-15
OVCAR-8 = tested on: OVCAR-8
IGROV-1 = tested on: IGROV-1
RXF 393 = tested on: RXF 393
NCI-H23 = tested on: NCI-H23
CAKI-1 = tested on: CAKI-1
MDA-N = tested on: MDA-N
NCI-H226 = tested on: NCI-H226
MDA-MB-231 = tested on: MDA-MB-231
HCC 2998 = tested on: HCC 2998
KM12 = tested on: KM12
SK-MEL-2 = tested on: SK-MEL-2
OVCAR-5 = tested on: OVCAR-5
RPMI-8226 = tested on: RPMI-8226
SN12C = tested on: SN12C
K562 = tested on: K562
T47D = tested on: T47D
NCI-H522 = tested on: NCI-H522
SF-295 = tested on: SF-295
TK-10 = tested on: TK-10
SF-539 = tested on: SF-539
SK-MEL-5 = tested on: SK-MEL-5
NCI-H460 = tested on: NCI-H460
SF-268 = tested on: SF-268
HOP-62 = tested on: HOP-62
MDA-MB-435 = tested on: MDA-MB-435
SK-MEL-28 = tested on: SK-MEL-28
HOP-92 = tested on: HOP-92
SW-620 = tested on: SW-620
M14 = tested on: M14
OVCAR-4 = tested on: OVCAR-4
Malme-3M = tested on: Malme-3M
MOLT-4 = tested on: MOLT-4
786-0 = tested on: 786-0
ACHN = tested on: ACHN
A549 = tested on: A549
UACC-257 = tested on: UACC-257
LOX IMVI = tested on: LOX IMVI
HL-60 = tested on: HL-60
EKVX = tested on: EKVX
CCRF-CEM = tested on: CCRF-CEM

O=C1N/C(=N/N=C\C(O)C(O)C(O)C(O)CO)N/C1=C/c1ccccc1 (stereo not drawn)
GI50 (NCI/ADR-RES): > 100 µM (inactive) and 67 µM (inactive)
GI50 (UACC-62): > 100 µM (inactive)

COC(=O)C(Cc1ccccc1)NC(=O)C(CNC(=O)OCc1ccccc1)C(=O)OCc1ccccc1 (stereo not drawn)
GI50 (PC-3): 58.3 µM (inactive)
GI50 (BT-549): > 100 µM (inactive)
GI50 (UO-31): > 100 µM (inactive) and 95.5 µM (inactive)
GI50 (U-251): 31.3 µM (inactive) and 46.7 µM (inactive)
GI50 (NCI/ADR-RES): > 100 µM (inactive)
GI50 (SK-OV-3): 59.7 µM (inactive)
GI50 (A498): > 100 µM (inactive)
GI50 (DU-145): > 100 µM (inactive)
GI50 (HCT-116): 70.3 µM (inactive) and 71 µM (inactive)
GI50 (SR): > 100 µM (inactive) and 56.1 µM (inactive)
GI50 (COLO 205): 51.1 µM (inactive)
GI50 (MCF7): 30.2 µM (inactive) and 48.2 µM (inactive)
GI50 (HT-29): > 100 µM (inactive)
GI50 (SNB-19): > 100 µM (inactive)
GI50 (OVCAR-3): 36.6 µM (inactive) and 32.3 µM (inactive)
GI50 (SNB-75): 42.6 µM (inactive) and 21.8 µM (inactive)
GI50 (HCT-15): > 100 µM
GI50 (OVCAR-8): > 100 µM (inactive)
GI50 (IGROV-1): 98.4 µM (inactive) and 60.3 µM (inactive)
GI50 (RXF 393): 13.2 µM (inactive)
GI50 (NCI-H23): > 100 µM (inactive)
GI50 (CAKI-1): 48.6 µM (inactive) and 64 µM (inactive)
GI50 (MDA-N): > 100 µM (inactive)
GI50 (NCI-H226): 54.8 µM (inactive) and 57.5 µM (inactive)
GI50 (MDA-MB-231): 38.7 µM (inactive) and 23 µM (inactive)
GI50 (HCC 2998): > 100 µM (inactive)
GI50 (KM12): > 100 µM (inactive)
GI50 (SK-MEL-2): > 100 µM (inactive) and 86.5 µM (inactive)
GI50 (OVCAR-5): > 100 µM (inactive)
GI50 (RPMI-8226): > 100 µM (inactive)
GI50 (SN12C): > 100 µM (inactive)
GI50 (K562): > 100 µM (inactive)
GI50 (T47D): 79.6 µM (inactive) and 47.8 µM (inactive)
GI50 (NCI-H522): 29.4 µM (inactive) and 32.2 µM (inactive)

CC(=O)c1cc2sc3ccccc3c2[nH]1
GI50 (PC-3): > 100 µM (inactive)
GI50 (SF-295): > 100 µM (inactive)
GI50 (UO-31): 56.4 µM (inactive)
GI50 (TK-10): > 100 µM (inactive)
GI50 (SF-539): > 100 µM (inactive)
GI50 (U-251): > 100 µM (inactive)
GI50 (NCI/ADR-RES): > 100 µM (inactive)
GI50 (SK-OV-3): > 100 µM (inactive)
GI50 (SK-MEL-5): > 100 µM (inactive)
GI50 (A498): > 100 µM (inactive)
GI50 (DU-145): > 100 µM (inactive)
GI50 (HCT-116): > 100 µM (inactive)
GI50 (NCI-H460): > 100 µM (inactive)
GI50 (COLO 205): > 100 µM (inactive)
GI50 (SF-268): > 100 µM (inactive)
GI50 (MCF7): > 100 µM (inactive)
GI50 (HT-29): > 100 µM (inactive)
GI50 (HOP-62): > 100 µM (inactive)
GI50 (SNB-19): > 100 µM (inactive)
GI50 (OVCAR-3): > 100 µM (inactive)
GI50 (HCT-15): > 100 µM
GI50 (MDA-MB-435): > 100 µM (inactive)
GI50 (OVCAR-8): 61.2 µM (inactive)
GI50 (SK-MEL-28): > 100 µM (inactive)
GI50 (RXF 393): > 100 µM (inactive)
GI50 (HOP-92): > 100 µM (inactive)
GI50 (NCI-H23): > 100 µM (inactive)
GI50 (CAKI-1): > 100 µM (inactive)
GI50 (MDA-N): > 100 µM (inactive)
GI50 (MDA-MB-231): > 100 µM (inactive)
GI50 (HCC 2998): > 100 µM (inactive)
GI50 (SW-620): > 100 µM (inactive)
GI50 (KM12): > 100 µM (inactive)
GI50 (SK-MEL-2): > 100 µM (inactive)
GI50 (OVCAR-5): > 100 µM (inactive)
GI50 (RPMI-8226): 16.3 µM (inactive)
GI50 (M14): > 100 µM (inactive)
GI50 (OVCAR-4): > 100 µM (inactive)
GI50 (SN12C): > 100 µM (inactive)
GI50 (K562): > 100 µM (inactive)
GI50 (T47D): > 100 µM (inactive)
GI50 (UACC-62): 26.7 µM (inactive)
GI50 (Malme-3M): > 100 µM (inactive)
GI50 (MOLT-4): > 100 µM (inactive)
GI50 (786-0): > 100 µM (inactive)
GI50 (NCI-H522): > 100 µM (inactive)
GI50 (ACHN): > 100 µM (inactive)
GI50 (A549): > 100 µM (inactive)

COc1cc(-c2nc3cc(F)ccc3s2)ccc1O
GI50 (PC-3): 49 µM (inactive)
GI50 (BT-549): 20.6 µM (inactive)
GI50 (SF-295): 43.7 µM (inactive)
GI50 (UO-31): 34.8 µM (inactive)
GI50 (TK-10): 33.7 µM (inactive)
GI50 (UACC-257): 19 µM (inactive)
GI50 (SF-539): 49.4 µM (inactive)
GI50 (U-251): 54.1 µM (inactive)
GI50 (NCI/ADR-RES): 78.9 µM (inactive)
GI50 (SK-OV-3): 35.2 µM (inactive)
GI50 (SK-MEL-5): 12.1 µM (inactive)
GI50 (A498): 18.5 µM (inactive)
GI50 (DU-145): 82.8 µM (inactive)
GI50 (HCT-116): 62.7 µM (inactive)
GI50 (NCI-H460): 70.5 µM (inactive)
GI50 (SR): 29.7 µM (inactive)
GI50 (COLO 205): 16.4 µM (inactive)
GI50 (SF-268): 41.4 µM (inactive)
GI50 (MCF7): 4.61 µM (inactive)
GI50 (HT-29): 39.3 µM (inactive)
GI50 (SNB-19): 83.2 µM (inactive)
GI50 (OVCAR-3): 12.8 µM (inactive)
GI50 (LOX IMVI): 39.1 µM (inactive)
GI50 (HCT-15): 11.7 µM
GI50 (MDA-MB-435): > 100 µM (inactive)
GI50 (OVCAR-8): > 100 µM (inactive)
GI50 (SK-MEL-28): 33.8 µM (inactive)
GI50 (IGROV-1): 10.9 µM (inactive)
GI50 (RXF 393): > 100 µM (inactive)
GI50 (NCI-H23): 42.2 µM (inactive)
GI50 (CAKI-1): 28.2 µM (inactive)
GI50 (HL-60): 41 µM (inactive)
GI50 (MDA-N): 99.3 µM (inactive)
GI50 (NCI-H226): 26.4 µM (inactive)
GI50 (MDA-MB-231): 34.2 µM (inactive)
GI50 (HCC 2998): 0.0622 µM (active)
GI50 (SW-620): > 100 µM (inactive)
GI50 (KM12): 18.6 µM (inactive)
GI50 (SK-MEL-2): > 100 µM (inactive)
GI50 (OVCAR-5): > 100 µM (inactive)
GI50 (RPMI-8226): 41.1 µM (inactive)
GI50 (EKVX): 5.73 µM (inactive)
GI50 (M14): 58.3 µM (inactive)
GI50 (OVCAR-4): 21.9 µM (inactive)
GI50 (SN12C): 85.1 µM (inactive)
GI50 (K562): 82.8 µM (inactive)
GI50 (T47D): 0.286 µM (active)
GI50 (UACC-62): 36.6 µM (inactive)
GI50 (Malme-3M): 78.9 µM (inactive)
GI50 (MOLT-4): 56.8 µM (inactive)
GI50 (786-0): 37.1 µM (inactive)
GI50 (CCRF-CEM): 28.8 µM (inactive)
GI50 (NCI-H522): 19.5 µM (inactive)
GI50 (ACHN): 89.5 µM (inactive)
GI50 (A549): 67.5 µM (inactive)

O=C(c1cccc2ccccc12)C1S(=O)(=O)OCCOS1(=O)=O
GI50 (PC-3): > 100 µM (inactive)
GI50 (BT-549): > 100 µM (inactive)
GI50 (SF-295): 0.0151 µM (active)
GI50 (UO-31): > 100 µM (inactive)
GI50 (TK-10): > 100 µM (inactive)
GI50 (U-251): > 100 µM (inactive)
GI50 (NCI/ADR-RES): > 100 µM (inactive)
GI50 (SK-MEL-5): > 100 µM (inactive)
GI50 (DU-145): > 100 µM (inactive)
GI50 (HCT-116): > 100 µM (inactive)
GI50 (NCI-H460): > 100 µM (inactive)
GI50 (SR): > 100 µM (inactive)
GI50 (COLO 205): > 100 µM (inactive)
GI50 (MCF7): > 100 µM (inactive)
GI50 (HT-29): > 100 µM (inactive)
GI50 (HOP-62): > 100 µM (inactive)
GI50 (SNB-19): > 100 µM (inactive)
GI50 (OVCAR-3): > 100 µM (inactive)
GI50 (HCT-15): > 100 µM
GI50 (MDA-MB-435): > 10 µM (inactive)
GI50 (OVCAR-8): > 100 µM (inactive)
GI50 (SK-MEL-28): > 100 µM (inactive)
GI50 (NCI-H23): > 100 µM (inactive)
GI50 (CAKI-1): > 100 µM (inactive)
GI50 (HL-60): > 100 µM (inactive)
GI50 (MDA-N): > 100 µM (inactive)
GI50 (MDA-MB-231): > 100 µM (inactive)
GI50 (HCC 2998): > 100 µM (inactive)
GI50 (KM12): > 100 µM (inactive)
GI50 (SK-MEL-2): > 100 µM (inactive)
GI50 (OVCAR-5): > 100 µM (inactive)
GI50 (RPMI-8226): > 100 µM (inactive)
GI50 (EKVX): > 100 µM (inactive)
GI50 (M14): > 100 µM (inactive)
GI50 (OVCAR-4): > 100 µM (inactive)
GI50 (SN12C): > 100 µM (inactive)
GI50 (K562): > 100 µM (inactive)
GI50 (Malme-3M): > 100 µM (inactive)
GI50 (MOLT-4): > 100 µM (inactive)
GI50 (786-0): > 100 µM (inactive)
GI50 (CCRF-CEM): > 100 µM (inactive)
GI50 (ACHN): > 100 µM (inactive)
GI50 (A549): > 100 µM (inactive)

O=P(O)(O)OC1C(OP(=O)(O)O)C(OP(=O)(O)O)C(OP(=O)(O)O)C(OP(=O)(O)O)C1OP(=O)(O)O (stereo not drawn) [PHYTATE]
GI50 (EKVX): > 500 µM (inactive)

Source: ChEMBL document CHEMBL1201862, “PubChem BioAssay data set” (2004)
